Results on one molecule are retold here after US12275687B2 (priority 2017, dated 2025).

Assay [1] concerns the target T1, BLT1 (Cavia porcellus, UniProt H0VYV8). Kind of assay: Saturation binding assay of ^3H-LTB4 and BLT1 with various concentrations of benzamidine. The arrangement: expressed in transfected cells; host or cells: HEK293 (membrane fraction); species or system guinea pig. The following applies: equilibrium dissociation constant of ^3H-LTB4, global fitting with benzamidine. The procedure: Each point (±s.e.m.) indicates the mean value of three independent experiments, each with triplicate reactions. […] Each point (±s.e.m.) indicates the mean value of three independent experiments, each with triplicate reactions. […] Each point (±s.e.m.) indicates the mean value of triplicate reactions. For the evaluation of the ligand-binding activity of the BLT1 mutants and BLT1-[…], a ^3H-LTB4 binding assay was performed using the BLT1-expressing membrane fractions of COS-7, HEK293, or P. pastoris cells, as described previously (Hori T. et al., 2010, supra; Hori T. et al., 2015, supra). For the evaluation of the thermostability, the membrane fraction was heat-treated before the ^3H-LTB4 binding assay.

The target of assay [2] is T1, BLT1. The assay can be described thus: TGFα shedding assay with benzamidine (G-protein activation by LTB4). It counts as cell-based. The arrangement: expressed in transfected cells. The following applies: for logτA: agonist signaling efficacy; for KA / logKA: equilibrium dissociation constant of LTB4; for logKA: log value as printed; for Em: maximum possible signal response. The procedure:
Each point (±s.e.m.) indicates the mean value of three independent experiments, each with triplicate reactions. […] Each point (±s.e.m.) indicates the mean value of three independent experiments, each with triplicate reactions. […] Each point (±s.e.m.) indicates the mean value of triplicate reactions. […] To determine the parameters, three steps of fitting procedures were performed.

Assay [3] has as its target BLT1-T4L. Kind of assay: Competition assay of ligands against ^3H-LTB4, BLT1-T4L expressed in P. pastoris. It counts as binding, guinea pig. The text has this: (§1) For the ligand binding assay of BLT1-T4Ls, the T4L cDNA was integrated into the cDNA, encoding the newly generated thermostable BLT1 mutant with the additional mutation V212A, by the consensus method (residues 1-14 deleted and H83G/K88G/V212A/S309A mutations), with the α-factor PrePro signal sequence and the FLAG tag at the N-terminal, and the PreScission site and the His6 tag at the C-terminal of BLT1 (Hori T. et al., 2010, supra) in the pPIC3.5K vector, using the In-Fusion enzyme (FIG. 7A). The expression vectors were introduced into the yeast Pichia pastoris using an EasyComp kit (Thermo Fisher Scientific). BLT1-T4Ls were expressed in 10 ml cultures, and the membrane fraction was prepared as described previously (Hori T. et al., 2010, supra; Hon T. et al., 2015, supra).
(§2) For the evaluation of the ligand-binding activity of the BLT1 mutants and BLT1-T4Ls, a ^3H-LTB4 binding assay was performed using the BLT1-expressing membrane fractions of COS-7, HEK293, or P. pastoris cells, as described previously (Hori T. et al., 2010, supra; Hori T. et al., 2015, supra). For the evaluation of the thermostability, the membrane fraction was heat-treated before the ^3H-LTB4 binding assay.

Assay [4] concerns the target BLT1-T4L. Kind of assay: Saturation binding of ^3H-LTB4, BLT1-T4L expressed in P. pastoris (membrane fraction). The arrangement: species or system guinea pig. The following applies: saturation binding of ^3H-LTB4, ICL3-10 construct.
Text: as §1, §2

T1 sequence (H0VYV8 1-348): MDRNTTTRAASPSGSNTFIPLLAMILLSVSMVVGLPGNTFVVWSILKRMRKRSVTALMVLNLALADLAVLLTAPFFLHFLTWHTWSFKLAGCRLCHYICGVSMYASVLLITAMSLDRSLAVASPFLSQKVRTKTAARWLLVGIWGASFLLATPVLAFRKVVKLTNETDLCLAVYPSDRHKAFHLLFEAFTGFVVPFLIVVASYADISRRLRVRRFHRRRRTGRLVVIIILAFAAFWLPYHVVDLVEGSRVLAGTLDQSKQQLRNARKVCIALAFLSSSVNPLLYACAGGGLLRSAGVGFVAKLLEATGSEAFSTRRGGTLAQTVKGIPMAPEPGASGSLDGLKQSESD

As a reminder, the Kd is the constant that tells how readily two partners part at equilibrium. As usually defined, the Ki is the dissociation constant of the complex between target and ligand, obtained from inhibition or displacement. High values mean weaker binding, low ones tighter binding. As for `CCCCC/C=C\C[C@@H](O)/C=C/C=C/C=C\[C@@H](O)CCCC(=O)O` [LTB4, leukotriene B4], the Kd on BLT1 [1] was 0.6 nM; on BLT1-T4L [4], 1.2 ± 0.1 nM. Further, the logτA on BLT1 [2] (G16, Em = 20) is reported as 0.076; at BLT1 [2] (Gq/i1, in n = 1, Em = 25), 0.82. Further, the KA result on BLT1 [2] (G16) is “(KA = 9.2 nM)”; on BLT1 [2] (Gq/i1) it was “(KA = 24 nM)”. In addition, the logKA on BLT1 [2] (G16) is −8.0; at BLT1 [2] (Gq/i1) it was −7.6. The figures for the Em at BLT1 [2] (G16) and on BLT1 [2] (Gq/i1) were 27.6 and 26.7, respectively. This molecule displayed a Ki at BLT1-T4L [3] of 0.67 nM. In addition, the logIC50 in the assay with BLT1-T4L [3] (log value (negative)) was −9.0.
